Four molecules from ChEMBL document CHEMBL1938296, “Steroidal C-21 heteroaryl thioethers (Part 2): discovery of orally bioavailable selective glucocorticoid receptor modulators (dissociated steroids)” (Bioorg Med Chem Lett, 2012) can be followed below.

SMILES strings stand for the structures. Active and inactive are the calls of the source. No cut-off for these calls is given here.

Data set [1] deals with T1, Glucocorticoid receptor (Homo sapiens, UniProt P04150).
T1 sequence (P04150 whole entry): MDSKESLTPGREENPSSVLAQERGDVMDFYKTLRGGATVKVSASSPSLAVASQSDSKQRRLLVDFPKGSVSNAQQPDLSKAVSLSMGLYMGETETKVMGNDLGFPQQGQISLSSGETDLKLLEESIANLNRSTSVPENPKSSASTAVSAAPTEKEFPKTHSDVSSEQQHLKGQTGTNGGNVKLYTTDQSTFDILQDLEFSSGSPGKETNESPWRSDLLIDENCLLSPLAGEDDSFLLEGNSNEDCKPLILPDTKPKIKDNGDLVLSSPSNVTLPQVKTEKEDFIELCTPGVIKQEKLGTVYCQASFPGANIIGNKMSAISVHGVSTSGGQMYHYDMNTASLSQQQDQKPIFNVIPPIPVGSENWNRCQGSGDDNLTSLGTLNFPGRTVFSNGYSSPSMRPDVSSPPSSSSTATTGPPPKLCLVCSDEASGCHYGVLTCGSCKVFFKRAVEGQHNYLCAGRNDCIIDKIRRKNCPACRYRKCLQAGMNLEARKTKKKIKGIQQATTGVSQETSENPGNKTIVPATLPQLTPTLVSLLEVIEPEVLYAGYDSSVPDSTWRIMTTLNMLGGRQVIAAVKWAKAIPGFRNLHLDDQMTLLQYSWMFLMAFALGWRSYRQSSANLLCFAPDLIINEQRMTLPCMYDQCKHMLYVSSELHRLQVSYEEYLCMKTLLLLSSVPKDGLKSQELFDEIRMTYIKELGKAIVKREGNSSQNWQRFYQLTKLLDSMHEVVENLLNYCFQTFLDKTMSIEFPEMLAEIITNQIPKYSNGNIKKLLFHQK
Description: Transrepression activity at glucocorticoid receptor in human H292 cells assessed as inhibition of TNF-stimulated IL-8 production. The class given is cell-based.

Data set [2] addresses T2, Glucocorticoid receptor (Rattus norvegicus, UniProt P06536).
T2 sequence (P06536 whole entry): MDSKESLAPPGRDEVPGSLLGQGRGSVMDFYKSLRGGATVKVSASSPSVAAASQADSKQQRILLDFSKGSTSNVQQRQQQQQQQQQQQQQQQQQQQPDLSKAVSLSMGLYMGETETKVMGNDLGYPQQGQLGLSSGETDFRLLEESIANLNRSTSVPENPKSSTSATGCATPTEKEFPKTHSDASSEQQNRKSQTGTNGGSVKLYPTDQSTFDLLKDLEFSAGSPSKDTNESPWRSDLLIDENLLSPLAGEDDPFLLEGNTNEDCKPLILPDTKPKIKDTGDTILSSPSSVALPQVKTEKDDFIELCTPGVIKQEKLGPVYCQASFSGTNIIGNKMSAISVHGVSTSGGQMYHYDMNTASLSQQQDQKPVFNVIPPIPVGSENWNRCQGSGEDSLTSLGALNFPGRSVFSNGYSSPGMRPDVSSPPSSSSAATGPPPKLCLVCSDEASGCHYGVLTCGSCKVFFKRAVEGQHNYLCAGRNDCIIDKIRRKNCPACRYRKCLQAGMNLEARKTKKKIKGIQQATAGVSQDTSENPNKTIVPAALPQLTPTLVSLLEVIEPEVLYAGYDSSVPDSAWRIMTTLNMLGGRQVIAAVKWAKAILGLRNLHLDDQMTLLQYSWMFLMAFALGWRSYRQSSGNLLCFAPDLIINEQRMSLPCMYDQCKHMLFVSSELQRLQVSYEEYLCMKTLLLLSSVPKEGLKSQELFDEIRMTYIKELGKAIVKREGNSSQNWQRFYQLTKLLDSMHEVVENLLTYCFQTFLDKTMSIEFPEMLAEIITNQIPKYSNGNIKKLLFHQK
Kind of data set: Transactivation of glucocorticoid receptor in rat H42E cells assessed as induction of TAT measuring degradation of tyrosine to p-hydroxy phenyl pyruvate. The class given is cell-based. The settings on record: read-out: IC50 (the source's name).

For data set [3], the target named is T2, Glucocorticoid receptor. Kind of data set: Transactivation of glucocorticoid receptor in rat H42E cells assessed as induction of TAT measuring degradation of tyrosine to p-hydroxy phenyl pyruvate at 1 uM relative to prednisolone. The class given is cell-based. The note with it: read-out: Efficacy.
Data set [4] concerns the target T1, Glucocorticoid receptor. Description: Transactivation of glucocorticoid receptor in human HepG2 cells assessed as induction of TAT measuring degradation of tyrosine to p-hydroxy phenyl pyruvate. The class given is cell-based. The settings on record: read-out: IC50 (the source's name).
For data set [5], the target named is T1, Glucocorticoid receptor. Description: Transactivation of glucocorticoid receptor in human HepG2 cells assessed as induction of TAT measuring degradation of tyrosine to p-hydroxy phenyl pyruvate at 1 uM relative to untreated control. In kind it is cell-based. The note with it: hepg2, 1 µM.
In data set [6] the test system is Rattus norvegicus. Description: Antiinflammatory activity against Brown Norway rat allergic lung inflammation model assessed as total cell inhibition at 10 mg/kg, po for 3 days. The class given is functional. Also noted: scale not given: the % may be the effect or the level left.
Data set [7] relates to Rattus norvegicus. Description: Toxicity in Brown Norway rat allergic lung inflammation model assessed as decrease in thymus weight at 10 mg/kg, po for 3 days. The note with it: in vivo, 72 h. Also noted: dose 10 mg/kg, route oral; scale not given: the % may be the effect or the level left. The class given is organism-based.
A short description of data set [8]: AUC in Brown Norway rat at 10 mg/kg, po. In kind it is ADME, organism-based. Also noted: dose 10 mg/kg, route oral. The settings on record: plasma.
Data set [9] relates to Rattus norvegicus. Description: Antiinflammatory activity in ovalbumin-induced allergic Brown Norway rat lung inflammation model assessed as inhibition of forced vital capacity at 3 mg/kg, po qd administered 3 days before ovalbumin-challenge measured 24 hrs of post ovalbumin challenge. The class given is functional.
In data set [10] the test system is Rattus norvegicus. Kind of data set: Antiinflammatory activity in ovalbumin-induced allergic Brown Norway rat lung inflammation model assessed as inhibition of forced vital capacity at 10 mg/kg, po qd administered 3 days before ovalbumin-challenge measured 24 hrs of post ovalbumin challenge. In kind it is functional.
Data set [11] deals with Rattus norvegicus. Description: Antiinflammatory activity in ovalbumin-induced allergic Brown Norway rat lung inflammation model assessed as inhibition of forced vital capacity at 30 mg/kg, po qd administered 3 days before ovalbumin-challenge measured 24 hrs of post ovalbumin challenge. The class given is functional.
Data set [12] has as its system Rattus norvegicus. Description: Antiinflammatory activity in po dosed ovalbumin-induced allergic Brown Norway rat lung inflammation model assessed as inhibition of forced vital capacity administered 3 days before ovalbumin-challenge measured 24 hrs of post ovalbumin challenge. In kind it is functional.
The subject of data set [13] is Rattus norvegicus. Kind of data set: Antiinflammatory activity against Brown Norway rat allergic lung inflammation model assessed as total cell inhibition at 0.3 to 30 mg/kg, po for 10 days relative to prednisolone. The class given is functional, organism-based.
Data set [14] deals with Rattus norvegicus. Description: Toxicity in Brown Norway rat allergic lung inflammation model assessed as decrease in thymus weight at 0.3 to 30 mg/kg, po for 10 days. The class given is organism-based. Details: dose 0.3-30 mg/kg, route oral. The note with it: in vivo, 240 h.
Data set [15] deals with Rattus norvegicus. Description: Antiinflammatory activity in rat assessed as inhibition of LPS-induced TNF-alpha secretion up to 50 mg/kg, po. The class given is functional, organism-based. Also noted: dose 50 mg/kg.
Another data set deals with T3, Progesterone receptor (Homo sapiens, UniProt P06401).
T3 sequence (P06401 whole entry): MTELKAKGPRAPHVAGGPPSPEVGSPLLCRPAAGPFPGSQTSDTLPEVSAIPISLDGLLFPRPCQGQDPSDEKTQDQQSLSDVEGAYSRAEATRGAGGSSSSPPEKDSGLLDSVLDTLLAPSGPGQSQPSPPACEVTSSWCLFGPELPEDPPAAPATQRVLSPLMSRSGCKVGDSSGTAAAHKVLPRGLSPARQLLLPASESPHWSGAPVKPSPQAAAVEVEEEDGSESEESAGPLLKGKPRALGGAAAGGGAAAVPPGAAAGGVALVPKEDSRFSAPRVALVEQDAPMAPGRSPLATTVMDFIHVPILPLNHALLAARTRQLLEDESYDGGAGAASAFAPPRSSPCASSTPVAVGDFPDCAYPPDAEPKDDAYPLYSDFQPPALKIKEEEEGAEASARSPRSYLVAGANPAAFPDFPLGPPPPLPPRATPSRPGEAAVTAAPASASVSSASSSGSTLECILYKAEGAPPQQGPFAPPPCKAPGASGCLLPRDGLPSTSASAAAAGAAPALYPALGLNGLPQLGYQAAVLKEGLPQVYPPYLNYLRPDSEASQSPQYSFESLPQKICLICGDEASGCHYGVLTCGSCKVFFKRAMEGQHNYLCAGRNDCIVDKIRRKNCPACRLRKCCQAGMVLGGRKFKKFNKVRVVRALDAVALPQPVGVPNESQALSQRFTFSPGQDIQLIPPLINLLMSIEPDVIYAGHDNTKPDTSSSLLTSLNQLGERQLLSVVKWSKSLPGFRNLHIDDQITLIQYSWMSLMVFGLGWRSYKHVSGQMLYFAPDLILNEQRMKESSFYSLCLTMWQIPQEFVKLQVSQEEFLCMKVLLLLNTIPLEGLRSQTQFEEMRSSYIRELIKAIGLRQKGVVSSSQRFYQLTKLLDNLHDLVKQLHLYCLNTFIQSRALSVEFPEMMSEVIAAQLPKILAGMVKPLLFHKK
Kind of data set: Inhibition of human progesterone receptor.

The target in data set [16] is T1, Glucocorticoid receptor. Kind of data set: Inhibition of human glucocorticoid receptor.

A word on the IC50: it is the midpoint of a concentration-inhibition curve. For orientation: AUC means the area under the concentration-time curve, a measure of exposure. One may read the inhibition in vivo as the drop in the measured response relative to a control, in per cent. Broadly, the ED50 is the midpoint of the dose-response relation.

Consider `C[C@]12C=CC(=O)C=C1CC[C@@H]1[C@@H]2[C@@H](O)C[C@@]2(C)[C@H]1CC[C@]2(O)C(=O)CSc1ccc2ccccc2n1`, for which the half-maximal inhibitory concentration (IC50) on Glucocorticoid receptor [1] came out at 70.2 nM. Further, the EC50 was 361 nM on Glucocorticoid receptor [2] and 262 nM on Glucocorticoid receptor [4]. Moreover, the Emax at 1 µM at Glucocorticoid receptor [3] was determined as 56%. The Efficacy on Glucocorticoid receptor [5] was 52%. Also, the Activity in the data set on Rattus norvegicus [6] is 21%; in the data set on Rattus norvegicus [7] it was 0%. Besides, in data set [8], the AUC came out at 1200 ng·h/mL.
Take `C[C@]12C=CC(=O)C=C1CC[C@@H]1[C@@H]2[C@@H](O)C[C@@]2(C)[C@H]1CC[C@]2(O)C(=O)CO` [PREDNISOLONE]: the Emax at 1 µM on Glucocorticoid receptor [3] was 100%. On Glucocorticoid receptor [5], the Efficacy came out at 81%. Besides, the results for the Activity with Rattus norvegicus [6] and in the data set on Rattus norvegicus [7] were 56% and 53%, respectively. The AUC in data set [8] turned out to be 1250 ng·h/mL. The inhibition in vivo at 3 mg/kg with Rattus norvegicus [9] was 43%. Also, in the data set on Rattus norvegicus [10], the inhibition in vivo at 10 mg/kg turned out to be 81%. Moreover, the inhibition in vivo at 30 mg/kg in the data set on Rattus norvegicus [11] stood at 111%. For the same molecule, the ED50 in the data set on Rattus norvegicus [12] stood at 5 mg/kg.
With `C[C@@H]1C[C@H]2[C@@H]3CCC4=CC(=O)C=C[C@]4(C)[C@H]3[C@@H](O)C[C@]2(C)[C@@]1(O)C(=O)CSc1nc2cccnc2s1`, the IC50 on Glucocorticoid receptor [1] came out at 7 nM. In addition, the results for the EC50 on Glucocorticoid receptor [2] and on Glucocorticoid receptor [4] were 24.1 nM and 722 nM, respectively. On Glucocorticoid receptor [3], the Emax at 1 µM came to 13%. The Efficacy at Glucocorticoid receptor [5] was 27%. For the same molecule, the Activity in the data set on Rattus norvegicus [6] and in the data set with Rattus norvegicus [7] was 75% throughout. Also, the AUC in [8] worked out at 11900 ng·h/mL.
For the molecule `Cn1c(SCC(=O)[C@@]2(O)CC[C@H]3[C@@H]4CCC5=CC(=O)C=C[C@]5(C)[C@H]4[C@@H](O)C[C@@]32C)nc2ccccc21`, the figures for the 50% inhibitory concentration (IC50) at Glucocorticoid receptor [1], against Progesterone receptor and against Glucocorticoid receptor [16] were 47 nM, 1370 nM and 7.3 nM, respectively. The EC50 on Glucocorticoid receptor [2] amounted to 235 nM. The Emax at 1 µM on Glucocorticoid receptor [3] stood at 4%. For the same molecule, the Efficacy on Glucocorticoid receptor [5] worked out at 11%. Besides, the Activity in the data set on Rattus norvegicus [6] is given as 58%; with Rattus norvegicus [7], 4%; in the data set on Rattus norvegicus [14] it was “Toxic”. Also, the AUC in data set [8] worked out at 960 ng·h/mL. Also, the result with Rattus norvegicus [13] was Active. Also, the inhibition in vivo at 3 mg/kg in the data set with Rattus norvegicus [9] was found to be 23%. For the same molecule, in the data set with Rattus norvegicus [10], the inhibition in vivo at 10 mg/kg was 50%. Moreover, the inhibition in vivo at 30 mg/kg in the data set on Rattus norvegicus [11] was 71%. The median effective dose (ED50) in the data set with Rattus norvegicus [12] amounted to 10 mg/kg. Also, in the data set with Rattus norvegicus [15], the inhibition result is “Active”.
